target: T1, h-GABA-A α5β3γ2 (Homo sapiens (Human), UniProt P18507+P31644); experiment: [3H]flumazenil competition binding assay, membranes of HEK293 cells expressing human GABAA receptors; conditions: Table 1, displacement of [3H]-Flumazenil 0.5 nM, mean of two determinations
Protocol: The affinity of compounds at GABAA receptor subtypes was measured by competition for [3H]flumazenil (85 Ci/mmol; Roche) binding to HEK293 cells expressing rat (stably transfected) or human (transiently transfected) receptors of composition α1β3γ2, α2β3γ2, α3β3γ2 and α5β3γ2.
Cell pellets were suspended in Krebs-tris buffer (4.8 mM KCl, 1.2 mM CaCl2, 1.2 mM MgCl2, 120 mM NaCl, 15 mM Tris; pH 7.5; binding assay buffer), homogenized by polytron for ca. 20 sec on ice and centrifuged for 60 min at 4° C. (50000 g; Sorvall, rotor: SM24=20000 rpm). The cell pellets were resuspended in Krebs-tris buffer and homogenized by polytron for ca. 15 sec on ice. Protein was measured (Bradford method, Bio-Rad) and aliquots of 1 mL were prepared and stored at 80° C.
Assays were incubated to equilibrium for 1 hour at 4° C. and harvested onto GF/C uni-filters (Packard) by filtration using a Packard harvester and washing with ice-cold wash buffer (50 mM Tris; pH 7.5). After drying, filter-retained radioactivity was detected by liquid scintillation counting. Ki values were calculated using Excel-Fit (Microsoft) and are the means of two determinations.

| Ki | SMILES |
| --- | --- |
| 14.8 nM | Cc1ccc(-c2noc(C)c2COc2ccc(C(=O)NC3CCCOCC3)nn2)cn1 (racemic) [Example 187, (RS)-6-((5-methyl-3-(6-methylpyridin-3-yl)isoxazol-4-yl)methoxy)-N-(oxepan-4-yl)pyridazine-3-carboxamide] |
| 5.3 nM | Cc1ccc(-c2noc(C)c2COc2ccc(C(=O)N[C@@H]3CC[C@@H](O)C3)nn2)cn1 (racemic) [Example 152, N-((1RS,3RS)-3-hydroxycyclopentyl)-6-((5-methyl-3-(6-methylpyridin-3-yl)isoxazol-4-yl)methoxy)pyridazine-3-carboxamide] |
| 16.1 nM | Cc1ccc(-c2noc(C)c2COc2ccc(C(=O)NC3CCOC(C)(C)C3)nn2)cn1 (racemic) [Example 58, (RS)—N-(2,2-dimethyltetrahydropyran-4-yl)-6-((5-methyl-3-(6-methylpyridin-3-yl)isoxazol-4-yl)methoxy)pyridazine-3-carboxamide] |
| 6.6 nM | Cc1ccc(-c2noc(C)c2COc2ccc(C(=O)NC3CCOC3)nn2)cn1 (racemic) [Example 45, (RS)-6-((5-methyl-3-(6-methylpyridin-3-yl)isoxazol-4-yl)methoxy)-N-(tetrahydrofuran-3-yl)pyridazine-3-carboxamide] |
| 5.8 nM | Cc1ccc(-c2noc(C)c2COc2ccc(C(=O)NC3CCS(=O)(=O)C3)nn2)cn1 (racemic) [Example 36, (RS)—N-(1,1-dioxothiolan-3-yl)-6-((5-methyl-3-(6-methylpyridin-3-yl)-1,2-oxazol-4-yl)methoxy)pyridazine-3-carboxamide] |

Second part, the compound before the results:

| SMILES | Ki |
| --- | --- |
| Cc1ccc(-c2noc(C)c2COc2ccc(C(=O)NC(C)C(F)(F)F)nn2)cn1 (racemic) [Example 34, (RS)-6-((5-methyl-3-(6-methylpyridin-3-yl)isoxazol-4-yl)methoxy)-N-(1,1,1-trifluoropropan-2-yl)pyridazine-3-carboxamide] | 13.2 nM |
| Cc1ccc(-c2noc(C)c2COc2ccc(C(=O)NC(C)(C)CCS(C)(=O)=O)nn2)cn1 [Example 80, 6-((5-methyl-3-(6-methylpyridin-3-yl)isoxazol-4-yl)methoxy)-N-(2-methyl-4-(methylsulfonyl)butan-2-yl)pyridazine-3-carboxamide] | 13.2 nM |
| Cc1ccc(-c2noc(C)c2COc2ccc(C(=O)NC3(C)CCOC3)nn2)cn1 (racemic) [Example 75, (RS)-6-((5-methyl-3-(6-methylpyridin-3-yl)isoxazol-4-yl)methoxy)-N-(3-methyltetrahydrofuran-3-yl)pyridazine-3-carboxamide] | 17.4 nM |

target: T1, h-GABA-A α5β3γ2; experiment: Two-electrode voltage clamp electrophysiology in Xenopus oocytes expressing GABAA receptors, modulation of GABA EC20 current; type: cell-based; conditions: Table 1; % modulation of GABA EC20 = 100*(Fold increase−1)
Protocol: Xenopus laevis oocytes at maturation stages V-VI were used for the expression of cloned mRNA encoding GABAA receptor subunits. Oocytes ready for RNA micro-injection were bought from Ecocyte, Castrop-Rauxel, Germany and stored in modified Barth's medium (composition in mM: NaCl 88, KCl 1, NaHCO3 2.4, HEPES 10, MgSO4 0.82, CaNO3 0.33, CaCl2 0.33, pH=7.5) at 20° C. until the experiment.
Oocytes were plated in 96-well plates to be used in an automated instrument (Robo-ocyte, MultiChannelSystems, Reutlingen, Germany) for microinjection and electrophysiological recordings. Approximately 50 nl of an aqueous solution containing the RNA transcripts for the subunits of the desired GABAA receptor was injected into each oocyte.
Electrophysiological experiments were performed on days 3 to 5 after the micro-injection of mRNA. During the experiment the oocytes were constantly superfused by a solution containing (in mM) NaCl 90, KCl 1, HEPES 5, MgCl2 1, CaCl2 1 (pH 7.4). Oocytes were impaled by two glass microelectrodes (resistance: 0.4 MΩ) which were filled with a solution containing KCl 1M+K-acetate 1.5 M and voltage-clamped to −80 mV. The recordings were performed at room temperature using the Roboocyte two-electrode voltage clamp system (Multichannelsystem). After an initial equilibration period of 1.5 min GABA was added for 1.5 min at a concentration evoking approximately 20% of a maximal current response (EC20). After another rest interval of 2.5 min GABA was again added evoking a response of similar amplitude and shape. […] Current traces were recorded at a digitization rate of 10 Hz during and shortly before and after the GABA application.
Each compound and concentration was tested on at least 3 oocytes.
For the analysis, the digitized current traces of the first and second GABA response were superimposed and, if necessary, rescaled to equal maximal amplitudes. The ratio between the two responses during the time interval of test compound application was calculated point by point. The extremum of the resulting “ratio trace” was taken as the efficacy (“Fold increase”) of the compound expressed as “% modulation of GABA EC20” (100*(Fold increase−1)).

| SMILES | Efficacy (GABA) % |
| --- | --- |
| Cc1ccc(-c2noc(C)c2COc2cnc(C(=O)NC3COC3)cn2)cn1 [Example 77, 5-((5-methyl-3-(6-methyl-3-pyridyl)isoxazol-4-yl)methoxy)-N-(oxetan-3-yl)pyrazine-2-carboxamide] | 11% |
| Cc1ccc(-c2noc(C)c2COc2ccc(C(=O)N[C@H]3CCCOC3)nn2)cn1 [Example 103, (S)-6-((5-methyl-3-(6-methylpyridin-3-yl)isoxazol-4-yl)methoxy)-N-(tetrahydropyran-3-yl)pyridazine-3-carboxamide] | 81% |
| Cc1ccc(-c2noc(C)c2COc2ccc(C(=O)N3C4COCC3C4)nn2)cn1 [Example 157, 3-oxa-6-azabicyclo[3.1.1]heptan-6-yl(6-((5-methyl-3-(6-methylpyridin-3-yl)isoxazol-4-yl)methoxy)pyridazin-3-yl)methanone] | 76% |

same assay, conditions: Table 1; GABA at EC20, test compound at approx. 30 fold its Ki, Xenopus oocytes

| Fold increase h-GABA-A α5β3γ2 oocyte | SMILES |
| --- | --- |
| 1.8 | Cc1ccc(-c2noc(C)c2COc2ccc(C(=O)NC3CC3)nn2)cn1 [Example 26, N-cyclopropyl-6-((5-methyl-3-(6-methylpyridin-3-yl)isoxazol-4-yl)methoxy)pyridazine-3-carboxamide] |
| 1.6 | Cc1ccc(-c2noc(C)c2COc2ccc(C(=O)N[C@@H]3CC[C@@H](OCC(F)F)C3)nn2)cn1 [Example 191, N-((1R,3R)-3-(2,2-difluoroethoxy)cyclopentyl)-6-((5-methyl-3-(6-methylpyridin-3-yl)isoxazol-4-yl)methoxy)pyridazine-3-carboxamide] |
| 1.7 | Cc1ccc(-c2noc(C)c2COc2ccc(C(=O)NC3CC4(COC4)C3)nn2)cn1 [Example 100, 6-((5-methyl-3-(6-methylpyridin-3-yl)isoxazol-4-yl)methoxy)-N-(2-oxaspiro[3.3]heptan-6-yl)pyridazine-3-carboxamide] |
| 1.8 | Cc1ccc(-c2noc(C)c2COc2ccc(C(=O)N[C@H]3CCOC3)nn2)cn1 [Example 87, (S)-6-((5-methyl-3-(6-methylpyridin-3-yl)isoxazol-4-yl)methoxy)-N-(tetrahydrofuran-3-yl)pyridazine-3-carboxamide] |
| 1.2 | Cc1ccc(-c2noc(C)c2COc2ccc(C(=O)NC3CCOCC3)cn2)nn1 [Example 108, 6-((5-methyl-3-(6-methylpyridazin-3-yl)isoxazol-4-yl)methoxy)-N-tetrahydropyran-4-yl-pyridine-3-carboxamide] |
| 2.2 | Cc1ccc(-c2noc(C)c2COc2cnc(C(=O)NC3CCC(F)(F)CC3)cn2)cn1 [Example 86, N-(4,4-difluorocyclohexyl)-5-((5-methyl-3-(6-methyl-3-pyridyl)isoxazol-4-yl)methoxy)pyrazine-2-carboxamide] |

The remaining lines, values behind:

| SMILES | Fold increase h-GABA-A α5β3γ2 oocyte |
| --- | --- |
| Cc1onc(-c2ccc(Cl)nc2)c1COc1ccc(C(=O)NC2(C)COC2)nn1 [Example 161, 6-((3-(6-chloropyridin-3-yl)-5-methylisoxazol-4-yl)methoxy)-N-(3-methyloxetan-3-yl)pyridazine-3-carboxamide] | 1.6 |
| Cc1ccc(-c2noc(C)c2COc2ccc(C(=O)N[C@@]3(C)CCOC3)nn2)cn1 [Example 81, (S)-6-((5-methyl-3-(6-methylpyridin-3-yl)isoxazol-4-yl)methoxy)-N-(3-methyltetrahydrofuran-3-yl)pyridazine-3-carboxamide] | 1.8 |
| Cc1ccc(-c2noc(C)c2COc2cc3c(cn2)C(=O)N(C)C3)cn1 [Example 10, 2-methyl-6-((5-methyl-3-(6-methylpyridin-3-yl)isoxazol-4-yl)methoxy)-1H-pyrrolo[3,4-c]pyridin-3(2H)-one] | 1.8 |
| CCC[C@@H](CO)NC(=O)c1ccc(OCc2c(-c3ccc(C)nc3)noc2C)nc1 [Example 4, (S)—N-(1-hydroxypentan-2-yl)-6-((5-methyl-3-(6-methylpyridin-3-yl)isoxazol-4-yl)methoxy)nicotinamide] | 2.5 |

same assay, conditions: Table 2; reference compounds, % modulation of GABA EC20

| Efficacy (GABA) % | SMILES |
| --- | --- |
| −18% | Cc1onc(-c2ccc(Cl)cn2)c1COc1ccc(C(=O)NC2CCOCC2)cn1 [RO-301, reference compound] |
| −12% | Cc1onc(-c2cccnc2)c1COc1ccc(C(=O)NC2CCOCC2)cn1 [RO-159, reference compound] |
| −18% | Cc1ccc(-c2noc(C)c2COc2ccc(C(=O)NC3CCOCC3)cn2)cc1 [RO-251, reference compound] |

Second part, the compound before the results:

| SMILES | Efficacy (GABA) % |
| --- | --- |
| Cc1onc(-c2ccc(Cl)cn2)c1COc1ccc(C(=O)NC2CCOCC2)nn1 [RE-B, 6-((3-(5-chloro-2-pyridyl)-5-methyl-isoxazol-4-yl)methoxy)-N-tetrahydropyran-4-yl-pyridazine-3-carboxamide, reference compound] | +3% |
| Cc1onc(-c2cccnc2)c1COc1ccc(C(=O)NC2CCOCC2)nn1 [RE-A, 6-((5-methyl-3-(3-pyridyl)isoxazol-4-yl)methoxy)-N-tetrahydropyran-4-yl-pyridazine-3-carboxamide, reference compound] | −3% |

same assay, conditions: Table 2; reference compounds, GABAA α5β3γ2 overexpressing oocytes

| SMILES | Fold increase h-GABA-A α5β3γ2 oocyte |
| --- | --- |
| Cc1onc(-c2ccc(Cl)cn2)c1COc1ccc(C(=O)NC2CCOCC2)cn1 [RO-301, reference compound] | 0.82 |
| Cc1onc(-c2cccnc2)c1COc1ccc(C(=O)NC2CCOCC2)cn1 [RO-159, reference compound] | 0.88 |
| Cc1ccc(-c2noc(C)c2COc2ccc(C(=O)NC3CCOCC3)cn2)cc1 [RO-251, reference compound] | 0.82 |
| Cc1onc(-c2cccnc2)c1COc1ccc(C(=O)NC2CCOCC2)nn1 [RE-A, 6-((5-methyl-3-(3-pyridyl)isoxazol-4-yl)methoxy)-N-tetrahydropyran-4-yl-pyridazine-3-carboxamide, reference compound] | 0.97 |
